Source: US20210393745A1, “OLIGOMER EXTENDED INSULIN-FC CONJUGATES AND THEIR MEDICAL USE” (Novo Nordisk A/S, priority 2018, published 2021)

Experiments:
[1] = biological target: T1, membrane-associated human IR-A (Homo sapiens, UniProt P06213); test: Insulin receptor affinity on membrane associated receptors (SPA), IR-A; assay type: binding; conditions: relative to human insulin
T1 construct: expressed in transfected cells; host or cells: BHK cells, pZem219B vector, plasma membrane preparation
Description: (§1) Membrane-associated human IR and IGF-1R are purified from BHK cells stably transfected with the pZem219B vector containing either the human IR-A, IR-B or IGF-IR insert. BHK cells are harvested and homogenized in ice-cold buffer (25 mM HEPES pH 7.4, 25 mM CaCl2 and 1 mM MgCl2, 250 mg/L bacitracin, 0.1 mM Pefablock). The homogenates are layered on a 41% (w/v) sucrose cushion and centrifuged for 75 minutes at 95000 g at 4° C. The plasma membranes are collected, diluted 1:5 with buffer (as above) and centrifuged again for 45 minutes at 40000 g at 4° C. The pellets are resuspended in a minimal volume of buffer and drawn through a needle (size 23) three times before storage at −80° C. until usage. The relative binding affinity for either of the membrane-associated human IR-A, IR-B or IGF-1R is determined by competition binding in a SPA setup. IR assays are performed in duplicate in 96-well OptiPlates (Perkin-Elmer Life Sciences). Membrane protein is incubated with gentle agitation for 150 minutes at 25° C. with 50 pM [^125IA14Y]-human insulin in a total volume of […] assay buffer (50 mM HEPES, 150 mM NaCl, 5 mM MgSO4, 0.01% Triton X-100, 0.1% (w/v) HSA (Sigma A1887), Complete EDTA-free protease inhibitors), 50 μg of wheat germ agglutinate (WGA)-coated PVT microspheres (GE Healthcare) and increasing concentrations of ligand. Assays are terminated by centrifugation of the plate at 2000 rpm for 2 minutes and bound radioactivity quantified by counting on a TopCount NXT (Perkin-Elmer Life Sciences).
(§2) IGF-1R assays are conducted essentially as for the IR binding assays except that membrane-associated IGF-1R and 50 pM [^125I-Tyr31]-human IGF-1 were employed.

[2] = biological target: T2, membrane-associated human IR-B (Homo sapiens, UniProt P06213); test: Insulin receptor affinity on membrane associated receptors (SPA), IR-B; assay type: binding; conditions: relative to human insulin
T2 construct: expressed in transfected cells; host or cells: BHK cells, pZem219B vector, plasma membrane preparation
Description: as §1, §2

[3] = biological target: T3, membrane-associated human IGF-1R (Homo sapiens, UniProt P08069); test: IGF-1 receptor affinity on membrane associated receptors (SPA); assay type: binding; conditions: membrane-associated IGF-1R, relative to human insulin
T3 construct: expressed in transfected cells; host or cells: BHK cells, pZem219B vector, plasma membrane preparation
Description: as §1, §2

[4] = test system: primary rat adipocytes; test: Lipogenesis in rat adipocytes; assay type: cell-based; conditions: relative to human insulin
Description: As a measure of in vitro potency of the insulin conjugatess of the invention, lipogenesis can be used. Primary rat adipocytes are isolated from the epididymale fat pads and incubated with 3H-glucose in buffer containing e.g. 0.1% fat free HSA and either standard (human insulin, HI) or insulin conjugates of the invention. The labelled glucose is converted into extractable lipids in a dose dependent way, resulting in full dose response curves. The result is expressed as relative potency (%) with 95% confidence limits of insulin of the invention compared to standard (HI).

[5] = In vivo PK after s.c. dosing, normal rats; design: species or system Sprague-Dawley rat; conditions: s.c. 30 nmol/kg, mean value
Description: (§3) Insulin-Fc conjugates were tested in vivo by subcutaneous (s.c.) administration to normal and streptozotocin (STZ) treated male Sprague-Dawley (SD) rats.
(§4) The rats were dosed s.c. in the neck region with a dose of 30 nmol/kg of the insulin-Fc conjugates. Blood samples for blood glucose and plasma insulin analysis were collected from the tongue vein up to 10 days post dosing. The insulin-Fc concentrations were measured by immuno-assay (LLOQ=1000 pM) and the resulting half-life values after s.c. dosing are shown in Table 4. The PK profiles for normal rats are shown in FIG. 3 and for streptozotocin treated rats in FIG. 6. Blood glucose (BG) was measured using Biosen S Line (EKF) and the BG and baseline corrected BG profiles for normal rats are shown in FIGS. 1 and 2 and for streptozotocin treated rats in FIGS. 4 and 5 respectively.

[6] = In vivo PK after s.c. dosing, streptozotocin treated rats; design: species or system Sprague-Dawley rat; conditions: s.c. 30 nmol/kg, mean value
Description: as §3, §4

[7] = test system: normal Sprague-Dawley rats; test: In vivo PD, blood glucose lowering in normal rats; design: species or system Sprague-Dawley rat; conditions: s.c. 30 nmol/kg, baseline corrected BG up to 10 days, difference from vehicle, mean
Description: as §3, §4

[8] = test system: streptozotocin treated Sprague-Dawley rats; test: In vivo PD, blood glucose lowering in streptozotocin treated rats; design: species or system Sprague-Dawley rat; conditions: s.c. 30 nmol/kg, baseline corrected BG up to 10 days, difference from vehicle, mean
Description: as §3, §4

[9] = Stability study: purity by anionic exchange chromatography; assay type: physicochemical; conditions: purity %(5° C.) − purity %(30° C.), 30 μM, pH 7.4
Description: Samples for stability studies were prepared by weighing out 8-10 mg freeze-dried material. The freeze-dried material was solubilized to […] in a premade solution A (5 mM phophate (pH 7.4), 140 mM NaCl and 70 ppm polysorbate 20). Protein concentration was determined using absorbance at 280 nm using a Nanodrop 2000 (Thermo Fisher Scientific Inc.) and theoretical extinction coefficients. Dilution into solution A was done to reach a final concentration of 30 μM.
Anionic exchange chromatography was performed on an Ultra-Performance Liquid Chromatography system (Waters Acquity H-Class) equipped with a fluorescence detector (Waters Acquity FLR Detector). A Bio SAX column with dimensions 50×4.6 mm from Agilent, kept at 30° C., was used in gradient elution mode. Mobile phase A was 5/95 (v/v), acetonitrile/water with 25 mM BIS-TRIS propane, pH 7.3 and mobile phase B was 5/95 (v/v), acetonitrile/water with 25 mM BIS-TRIS propane and 350 mM NaCl, pH 7.3. Injection volume was 3 μL. The flow rate was kept at 0.5 mL/min with a linear gradient from 10 to 47% B in 3 min followed by a linear gradient from 47 to 55% B in 30 min. Peaks were detected with an emission wavelength of […] and data processing is performed with the EMPOWER 3 software from Waters. Samples were analysed for purity as percent API in relation to all other species.
Reported as Δ purity %=purity %(5° C.)−purity % (30° C.).
Stability of Fc-insulin analogues was evaluated by comparing purity from anion exchange chromatography and formation of high molecular weight products (HMWP) at 5° C. (control) versus 30° C. (heat induced stress). […] The amount of HMWP was decreased by 0.5-2% in the stressed sample versus the control, i.e. some aggregated material has disassociated during incubation at 30° C.

[10] = biological target: T4, hFcRn ectodomain (Homo sapiens, UniProt P55899); test: SPR analysis of the binding of hFcRn ECD; conditions: pH 6.0, 25° C., steady-state fitting; read-out: Kn (μM), binding of hFcRn ECD
T4 construct: the hFcRn ectodomain diluted at 4000 nM with 2-fold serial dilutions was injected
Description: First, the three Insulin-Fc samples diluted at 10 ug/ml and the wild-type hIgG4 Fc (produced in HEK293 cells, i.e. glycosylated) diluted at 30 ug/ml in 10 mM sodium acetate (pH 4.5) (GE Healthcare, catalogue #BR100350) were immobilized on a CMD50L sensor chip (XanTec Bioanalytics GmbH) at spot 2 or 4 at 70-90 RU in each used flow cell via amine coupling with 1×HBS-EP+ (pH 7.4) (GE Healthcare, catalogue #BR-1006-69) used as the running buffer. The wild-type hIgG4 Fc was used as the control sample. In each used flow cell, spots 2, 3 and 4 were activated by 100 mM N-hydroxysuccinimide (NHS) and 400 mM N-ethyl-N′-dimethylaminopropyl carbodiimide hydrochloride (EDC) mixed at equal volume before the immobilization and blocked by 1 M ethanolamine hydrochloride-NaOH (pH 8.5) after the immobilization. NHS, EDC and ethanolamine were obtained from the Amine Coupling Kit, type 2 (GE Healthcare, catalogue #BR100633).
Next, the hFcRn ectodomain diluted at 4000 nM with 2-fold serial dilutions was injected through each used flow cell for 60 sec to allow for binding of the hFcRn ectodomain to the Insulin-Fc conjugates and wild-type hIgG4 Fc samples immobilized on the sensor chip, followed by dissociation for 180 sec. 1×PBS-EP+ (pH 6.0) was used as the dilution buffer for the hFcRn ectodomain and the running buffer in each binding cycle at the flow rate of 30 ul/min. After each binding cycle, the sensor chip was regenerated with a 60 sec injection of 1×PBS-EP+ (pH 7.4) at the flow rate of 30 ul/min. The 1×PBS-EP+ (pH 7.4) buffer was prepared by diluting 0.5 M EDTA (pH 8.0) (Invitrogen, catalogue #15575038) at 3 mM into 1×PBS-P+ (GE Healthcare, catalogue #28995084). The 1×PBS-EP+ (pH 6.0) buffer was prepared by adjusting the pH of the 1×PBS-EP+ buffer from 7.4 to 6.0 using ˜10 M HCl. The affinities (equilibrium dissociation constants, KD) were determined via steady-state fitting of the binding curves using the 1:1 binding model in Biacore 4000 Evaluation Software 1.0 (GE Healthcare).

T2 sequence (P06213 28-758 limits assumed): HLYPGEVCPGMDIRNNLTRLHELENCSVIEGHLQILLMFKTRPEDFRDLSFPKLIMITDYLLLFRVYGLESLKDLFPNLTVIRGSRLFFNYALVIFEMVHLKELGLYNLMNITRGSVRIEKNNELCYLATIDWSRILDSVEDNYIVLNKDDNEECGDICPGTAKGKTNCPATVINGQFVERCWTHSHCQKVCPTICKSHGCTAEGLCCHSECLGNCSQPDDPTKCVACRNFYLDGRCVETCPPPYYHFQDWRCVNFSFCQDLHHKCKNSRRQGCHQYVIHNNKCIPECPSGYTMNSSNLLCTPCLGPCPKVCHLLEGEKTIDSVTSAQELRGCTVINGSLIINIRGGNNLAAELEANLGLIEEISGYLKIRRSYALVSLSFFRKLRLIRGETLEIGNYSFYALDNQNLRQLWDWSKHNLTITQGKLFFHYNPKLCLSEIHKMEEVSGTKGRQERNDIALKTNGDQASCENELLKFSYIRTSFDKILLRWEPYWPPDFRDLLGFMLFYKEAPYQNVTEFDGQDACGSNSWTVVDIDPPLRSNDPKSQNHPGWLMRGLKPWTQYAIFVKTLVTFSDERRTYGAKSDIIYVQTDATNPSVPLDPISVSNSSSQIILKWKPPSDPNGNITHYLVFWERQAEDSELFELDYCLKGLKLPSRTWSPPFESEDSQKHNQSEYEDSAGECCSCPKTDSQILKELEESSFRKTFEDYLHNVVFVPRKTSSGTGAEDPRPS
T2 sequence (P06213 763-1382 partner limits assumed): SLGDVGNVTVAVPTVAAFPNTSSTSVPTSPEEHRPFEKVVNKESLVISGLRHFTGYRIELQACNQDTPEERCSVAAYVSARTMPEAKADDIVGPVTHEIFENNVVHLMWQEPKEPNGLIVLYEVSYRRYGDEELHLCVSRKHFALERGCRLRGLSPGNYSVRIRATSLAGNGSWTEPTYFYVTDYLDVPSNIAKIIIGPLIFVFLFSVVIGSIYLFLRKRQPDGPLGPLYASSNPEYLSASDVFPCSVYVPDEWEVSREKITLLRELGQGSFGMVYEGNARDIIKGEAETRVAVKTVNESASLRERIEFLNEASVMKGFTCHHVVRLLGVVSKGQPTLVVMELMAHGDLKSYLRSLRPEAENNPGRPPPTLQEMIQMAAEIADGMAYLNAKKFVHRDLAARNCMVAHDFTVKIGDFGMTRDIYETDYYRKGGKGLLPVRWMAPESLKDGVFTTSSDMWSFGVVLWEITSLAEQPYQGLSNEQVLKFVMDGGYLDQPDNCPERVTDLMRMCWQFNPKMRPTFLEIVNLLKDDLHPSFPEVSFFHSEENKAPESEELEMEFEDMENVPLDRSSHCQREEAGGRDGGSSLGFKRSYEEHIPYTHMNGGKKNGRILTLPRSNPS
T3 sequence (P08069 31-736 limits assumed): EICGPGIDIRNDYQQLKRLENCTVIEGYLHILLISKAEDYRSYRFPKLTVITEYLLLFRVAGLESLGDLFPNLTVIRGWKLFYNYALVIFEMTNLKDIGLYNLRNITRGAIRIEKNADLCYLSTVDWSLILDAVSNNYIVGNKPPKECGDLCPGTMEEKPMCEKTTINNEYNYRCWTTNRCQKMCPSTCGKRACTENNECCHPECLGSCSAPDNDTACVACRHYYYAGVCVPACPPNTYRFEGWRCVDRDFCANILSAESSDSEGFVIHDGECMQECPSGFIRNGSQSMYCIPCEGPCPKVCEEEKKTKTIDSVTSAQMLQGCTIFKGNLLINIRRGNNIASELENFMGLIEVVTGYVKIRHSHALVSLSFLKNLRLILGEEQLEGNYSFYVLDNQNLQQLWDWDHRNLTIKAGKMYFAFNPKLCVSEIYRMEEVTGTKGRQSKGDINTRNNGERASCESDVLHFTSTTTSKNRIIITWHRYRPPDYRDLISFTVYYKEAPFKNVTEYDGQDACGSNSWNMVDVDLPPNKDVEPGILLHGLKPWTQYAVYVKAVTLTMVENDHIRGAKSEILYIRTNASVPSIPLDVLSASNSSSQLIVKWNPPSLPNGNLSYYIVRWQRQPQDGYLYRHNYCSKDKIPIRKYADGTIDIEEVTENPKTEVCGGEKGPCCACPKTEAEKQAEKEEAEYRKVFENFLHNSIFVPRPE
T3 sequence (P08069 741-1367 partner limits assumed): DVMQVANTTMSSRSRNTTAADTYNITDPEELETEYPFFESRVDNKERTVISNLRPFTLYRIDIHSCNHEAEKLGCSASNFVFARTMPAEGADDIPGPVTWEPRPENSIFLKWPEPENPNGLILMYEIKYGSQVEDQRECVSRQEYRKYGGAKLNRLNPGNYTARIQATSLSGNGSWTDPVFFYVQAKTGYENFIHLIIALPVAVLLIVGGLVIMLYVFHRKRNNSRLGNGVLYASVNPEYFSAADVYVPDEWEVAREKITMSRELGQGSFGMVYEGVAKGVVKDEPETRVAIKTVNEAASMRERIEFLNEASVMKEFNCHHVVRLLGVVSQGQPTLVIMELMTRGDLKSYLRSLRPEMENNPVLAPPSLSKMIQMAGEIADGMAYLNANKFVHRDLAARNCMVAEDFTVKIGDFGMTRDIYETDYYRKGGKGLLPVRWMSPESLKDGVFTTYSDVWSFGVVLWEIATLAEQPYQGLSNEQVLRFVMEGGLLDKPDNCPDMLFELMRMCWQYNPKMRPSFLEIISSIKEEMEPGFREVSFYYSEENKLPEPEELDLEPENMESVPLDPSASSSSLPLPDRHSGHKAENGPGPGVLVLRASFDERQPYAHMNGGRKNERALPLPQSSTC
T1 sequence (P06213 28-1370 isoform P06213-2 limits assumed): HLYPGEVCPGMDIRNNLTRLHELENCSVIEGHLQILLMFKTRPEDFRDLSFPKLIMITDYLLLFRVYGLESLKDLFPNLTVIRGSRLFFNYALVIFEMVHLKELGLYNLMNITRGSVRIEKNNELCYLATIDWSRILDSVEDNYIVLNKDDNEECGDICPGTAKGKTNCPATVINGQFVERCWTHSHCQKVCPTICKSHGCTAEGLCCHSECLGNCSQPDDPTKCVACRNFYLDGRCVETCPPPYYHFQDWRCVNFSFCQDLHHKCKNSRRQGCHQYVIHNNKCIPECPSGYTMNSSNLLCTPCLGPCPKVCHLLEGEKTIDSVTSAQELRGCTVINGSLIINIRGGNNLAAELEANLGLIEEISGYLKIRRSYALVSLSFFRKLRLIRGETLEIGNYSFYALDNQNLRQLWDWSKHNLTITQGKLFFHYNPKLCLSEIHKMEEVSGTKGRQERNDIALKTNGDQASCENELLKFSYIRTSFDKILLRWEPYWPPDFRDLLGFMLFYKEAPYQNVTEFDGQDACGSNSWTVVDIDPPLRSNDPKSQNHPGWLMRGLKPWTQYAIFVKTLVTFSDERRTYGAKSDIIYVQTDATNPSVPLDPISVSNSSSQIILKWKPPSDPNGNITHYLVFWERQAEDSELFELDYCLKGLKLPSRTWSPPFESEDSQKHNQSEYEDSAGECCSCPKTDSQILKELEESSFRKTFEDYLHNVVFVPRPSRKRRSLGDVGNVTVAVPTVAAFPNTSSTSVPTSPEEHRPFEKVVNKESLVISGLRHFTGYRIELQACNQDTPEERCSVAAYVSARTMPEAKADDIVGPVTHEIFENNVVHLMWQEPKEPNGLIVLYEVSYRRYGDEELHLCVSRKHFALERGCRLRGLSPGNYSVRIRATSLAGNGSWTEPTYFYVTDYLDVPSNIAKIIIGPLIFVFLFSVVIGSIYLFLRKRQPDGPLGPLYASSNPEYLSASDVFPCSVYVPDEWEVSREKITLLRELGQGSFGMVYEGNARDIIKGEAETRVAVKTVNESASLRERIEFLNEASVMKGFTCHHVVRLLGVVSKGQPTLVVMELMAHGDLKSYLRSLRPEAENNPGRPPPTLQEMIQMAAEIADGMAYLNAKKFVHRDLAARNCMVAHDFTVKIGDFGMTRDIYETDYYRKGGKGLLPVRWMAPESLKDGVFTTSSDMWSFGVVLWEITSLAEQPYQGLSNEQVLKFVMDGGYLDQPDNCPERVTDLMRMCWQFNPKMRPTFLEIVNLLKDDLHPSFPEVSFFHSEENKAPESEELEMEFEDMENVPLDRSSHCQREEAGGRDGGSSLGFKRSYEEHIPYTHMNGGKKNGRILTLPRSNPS
T1 sequence (P06213 763-1382 partner limits assumed): as the sequence (P06213 763-1382 partner limits assumed) above
T4 sequence (P55899 24-297 limits assumed): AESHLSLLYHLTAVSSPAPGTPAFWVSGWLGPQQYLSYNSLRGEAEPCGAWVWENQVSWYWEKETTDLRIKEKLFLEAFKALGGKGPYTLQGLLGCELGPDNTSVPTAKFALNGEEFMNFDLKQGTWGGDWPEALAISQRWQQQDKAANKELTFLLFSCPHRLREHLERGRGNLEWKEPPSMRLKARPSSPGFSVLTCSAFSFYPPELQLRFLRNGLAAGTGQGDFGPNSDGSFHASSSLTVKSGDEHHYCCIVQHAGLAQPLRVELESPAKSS
T4 sequence (P61769 21-119 partner): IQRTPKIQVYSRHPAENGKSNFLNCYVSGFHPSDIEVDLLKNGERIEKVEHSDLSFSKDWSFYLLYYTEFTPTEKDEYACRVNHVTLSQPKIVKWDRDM

In the case of “(A14E, A21G, A22(GQEP)11, A66G, A67Q, A68E, A69K^, A70P, B16E, B25H, B29R, desB30 human insulin)/(226A, 227G, 228P, 234A, 235K, 297E, 315Q, 384Q, des447 hIgG4-Fc(226-447))3,5-bis[(2-acetyl)amino]benzoyl Conjugate [Example 5.3]”, the “hIR-A mem Rel. aff. (%)” value [1] is reported as 0.66%, the “hIR-B mem Rel. aff. (%)” value [2] is reported as 0.59% and the “IGF1R mem Rel. aff. (%)” value [3] is reported as 0.29%. For the same substance, the “Lipogenesis Rel. pot. (%)” value [4] was 0.64%, the “PK normal rat [T1/2, s.c. (h)]” value [5] was 48 h and the “PK STZ rat [T1/2, s.c. (h)]” value [6] was 50 h. The “AOCBG normal rat” value [7] was 248 mM·h, the “AOCBG STZ rat” value [8] was 2771 mM·h and the Δ purity [9] was 4.3%. It also gave a Kd [10] of 1.5 µM.
